Read-outs that look alike come from different tables or passages of the source.
Experiments:
[1] = system: greenhouse red spider mite (Tetranychus urticae); experiment: Tetranychus urticae spray test, OP-resistant (TETRUR); assay type: in vivo; settings: after 6 days, bean leaf discs
How it was run: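 Bean leaf discs infested with all stages of an OP-resistant strain are sprayed with compound in acetone/DMF with alkylaryl polyglycol ether emulsifier, diluted in water; % mortality after 6 days (100% = all mites killed).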

[2] = system: cattle ticks (Boophilus microplus); experiment: Boophilus microplus injection test (BOOPMI Inj); assay type: in vivo; settings: 20 μg/animal, injection into the abdomen, assessed after 7 days
Method: 6. Boophilus microplus Injection Test (BOOPMI Inj)
• Solvent: dimethyl sulphoxide
To produce a suitable preparation of active compound, 10 mg of active compound are mixed with 0.5 ml of solvent, and the concentrate is diluted with solvent to the desired concentration.
1 μl of the active compound solution is injected into the abdomen of 5 fed adult female cattle ticks (Boophilus microplus). The animals are transferred into dishes and kept in a climate-controlled room.
The activity is assessed after 7 days by laying of fertile eggs. Eggs whose fertility is not visible from the outside are stored in a climate-controlled cabinet until the larvae hatch after about 42 days. An efficacy of 100% means that none of the ticks has laid any fertile eggs; 0% means that all eggs are fertile.

[3] = system: southern root-knot nematode (Meloidogyne incognita); experiment: Meloidogyne incognita test (MELGIN); assay type: in vivo; settings: application rate 20 ppm, after 14 days, lettuce
Method: 5. Meloidogyne incognita Test (MELGIN) • Solvent: 125.0 parts by weight of acetone To prepare a suitable active compound preparation, 1 part by weight of active compound is mixed with the stated amount of solvent and the concentrate is diluted with water to the desired concentration. Vessels are filled with sand, active compound solution, an egg/larvae suspension of the southern root-knot nematode (Meloidogyne incognita) and lettuce seeds. The lettuce seeds germinate and the plants develop. On the roots, galls are formed. After 14 days, the nematicidal effect in % is determined by the formation of galls. 100% means that no galls have been found; 0% means that the number of galls on the treated plants corresponds to the untreated control.

[4] = log P by HPLC on reversed-phase columns (C 18), EEC directive 79/831 Annex V.A8; assay type: physicochemical; settings: for logP[a]: method [a]; for logP[b]: method [b]; for chromatographic logP: reversed-phase C18 HPLC column
How it was run: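 Measured by reversed-phase C18 HPLC (LC-MS) with a linear 10→95% acetonitrile gradient. Acidic: pH 2.7, 0.1% formic acid. Neutral: pH 7.8, 0.001 M ammonium bicarbonate.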

[5] = system: larvae of the mustard beetle (Phaedon cochleariae); experiment: Phaedon cochleariae spray test (PHAECO); assay type: in vivo; settings: application rate 500 g/ha, after 7 days, Chinese cabbage leaf discs
Method: 2. Phaedon cochleariae Spray Test (PHAECO)
• Solvents: 78.0 parts by weight of acetone • 1.5 part by weight of dimethylformamide • Emulsifier: 0.5 part by weight of alkylaryl polyglycol ether
To produce a suitable preparation of active compound, 1 part by weight of active compound is mixed with the stated amounts of solvents and emulsifier, and the concentrate is diluted with emulsifier-containing water to the desired concentration.
After 7 days, the efficacy in % is determined. 100% means that all of the beetle larvae have been killed; 0% means that none of the beetle larvae have been killed.

[6] = pH 2.7, acidic range, pH 2.7, 0.1% aqueous formic acid / acetonitrile, read-out: log P[a]
[7] = pH 2.7, method [a], read-out: logP[a]
[8] = pH 7.8, method [b], read-out: logP[b]
[9] = pH 7.8, neutral range, pH 7.8, 0.001 molar aqueous ammonium bicarbonate / acetonitrile, read-out: log P[b]

Structure (SMILES) | efficacy in % (spider mites killed) ([1]; application rate 500 g/ha) | nematicidal effect in % (formation of galls) [3] | logP[a] [4] | logP[b] [4] | efficacy in % (beetle larvae killed) [5] | other results
Cc1cc(F)c(-n2cnc3ncsc3c2=O)cc1[S+]([O-])CC(F)(F)F (stereo not shown) [Compound 79] | 100% | 90% | 1.60 | 1.57 | – | efficacy in % (laying of fertile eggs) [2]: 100%
Cc1cc(F)c(-n2cnc3cnn(C)c3c2=O)cc1[S+]([O-])CC(F)(F)F (stereo not shown) [Compound 40] | 90% | 100% | 1.82 | 1.81 | – | efficacy in % (laying of fertile eggs) [2]: 100%
CCc1nsc2ncn(-c3cc(SCC(F)(F)F)c(C)cc3F)c(=O)c12 [Compound 201] | 90% | – | – | – | 100% | –
Cc1cc(F)c(-n2cnc3sccc3c2=O)cc1[S+]([O-])CC(F)(F)F (stereo not shown) [Compound 96] | 100% | 90% | 2.10 | 2.09 | 100% | –
N#Cc1ccc(-n2cnc3sccc3c2=O)cc1[S+]([O-])CC(F)(F)F (stereo not shown) [Compound 95] | – | – | 1.89 | 1.87 | 100% | –
Cc1cc(F)c(-n2cnc3cnn(C(C)C)c3c2=O)cc1SCC(F)(F)F [Compound 161] | 100% | 100% | – | – | 83% | –
Cc1ccc(-n2cnc3sccc3c2=O)cc1[S+]([O-])CC(F)(F)F (stereo not shown) [Compound 86, 3-{4-Methyl-3-[(2,2,2-trifluoroethyl)sulphinyl]phenyl}thieno[2,3-d]pyrimidin-4(3H)-one] | 90% | 90% | – | – | – | chromatographic logP [4, 6]: 1.94; chromatographic logP [4, 7]: 1.94; chromatographic logP [4, 8]: 1.93; chromatographic logP [4, 9]: 1.93
Cc1cc(F)c(-n2nnc3c(C)nsc3c2=O)cc1[S+]([O-])CC(F)(F)F (stereo not shown) [Compound 183] | 90% | – | – | – | 100% | –
Cc1c2c(=O)n(-c3ccc(C#N)c([S+]([O-])CC(F)(F)F)c3)cnc2nn1C (racemic) [Compound 51] | – | – | 1.52 | 1.50 | 100% | –
Cc1cc(F)c(-n2cnc3snc(C(C)(C)C)c3c2=O)cc1[S+]([O-])CC(F)(F)F (stereo not shown) [Compound 208] | 100% | 100% | – | – | 83% | –
Cc1nn(C)c2ncn(-c3ccc(C#N)c(SCC(F)(F)F)c3)c(=O)c12 [Compound 34] | – | – | 2.30 | 2.24 | 100% | –
Cc1ccc(-n2cnc3nn(C)c(C)c3c2=O)cc1[S+]([O-])CC(F)(F)F (stereo not shown) [Compound 47] | 90% | 80% | 1.54 | 1.51 | – | –
Cc1cc(F)c(-n2cnc3cnn(C(C)C)c3c2=O)cc1[S+]([O-])CC(F)(F)F (stereo not shown) [Compound 165] | 100% | 100% | – | – | 100% | –
Cc1cc(F)c(-n2cnc3scnc3c2=O)cc1SCC(F)(F)F [Compound 60] | – | – | 2.54 | 2.52 | 100% | –
N#Cc1cc(F)c(-n2cnc3sccc3c2=O)cc1SCC(F)(F)F [Compound 82] | – | – | 2.70 | 2.67 | 100% | –
Cc1cc(F)c(-n2nnc3c(cnn3C)c2=O)cc1[S+]([O-])CC(F)(F)F (stereo not shown) [Compound 120, 3-{2-Fluoro-4-methyl-5-[(2,2,2-trifluoroethyl)sulphinyl]phenyl}-7-methyl-3,7-dihydro-4H-pyrazolo[3,4-d][1,2,3]triazin-4-one] | 90% | – | – | – | 83% | chromatographic logP [4, 6]: 2.14; chromatographic logP [4, 7]: 2.14; chromatographic logP [4, 8]: 2.1; chromatographic logP [4, 9]: 2.1
Cc1cc(F)c(-n2cnc3c(cnn3C)c2=O)cc1SCC(F)(F)F [Compound 1, 5-{2-Fluoro-4-methyl-5-[(2,2,2-trifluoroethyl)sulphanyl]phenyl}-1-methyl-1,5-dihydro-4H-pyrazolo[3,4-d]pyrimidin-4-one] | 90% | – | – | – | 100% | chromatographic logP [4, 6]: 2.66; chromatographic logP [4, 7]: 2.66; chromatographic logP [4, 8]: 2.65; chromatographic logP [4, 9]: 2.65
Cc1cc(F)c(-n2nnc3cnn(C)c3c2=O)cc1[S+]([O-])CC(F)(F)F (stereo not shown) [Compound 136] | 100% | 90% | – | – | 83% | –
Cc1ccc(-n2cnc3c(cnn3C)c2=O)cc1[S+]([O-])CC(F)(F)F (racemic) [Compound 27] | 90% | – | 1.57 | 1.57 | – | efficacy in % (laying of fertile eggs) [2]: 100%
N#Cc1ccc(-n2cnc3ccsc3c2=O)cc1[S+]([O-])CC(F)(F)F (stereo not shown) [Compound 105] | – | – | 1.79 | 1.75 | 100% | –
Cc1cc(F)c(-n2cnc3c(C)nn(C)c3c2=O)cc1[S+]([O-])CC(F)(F)F (stereo not shown) [Compound 129] | 90% | 90% | – | – | – | efficacy in % (laying of fertile eggs) [2]: 100%
N#Cc1ccc(-n2cnc3sccc3c2=O)cc1[S+]([O-])CC(F)(F)F (stereo not shown) [Compound 88] | – | – | 2.07 | 2.00 | 100% | –
Cc1cc(C)c([S+]([O-])CC(F)(F)F)cc1-n1cnc2cnn(C)c2c1=O (stereo not shown) [Compound 134] | 100% | 100% | – | – | – | efficacy in % (laying of fertile eggs) [2]: 100%
Cc1cc(F)c(-n2cnc3ccsc3c2=O)cc1[S+]([O-])CC(F)(F)F (stereo not shown) [Compound 112] | – | 90% | 1.96 | 1.95 | 100% | efficacy in % (spider mites killed) ([1]; application rate 100 g/ha): 90%
O=c1c2sccc2ncn1-c1ccc(Cl)c([S+]([O-])CC(F)(F)F)c1 (stereo not shown) [Compound 106] | – | – | 2.07 | 2.03 | 83% | –
Cc1cc(F)c(-n2cnc3nsc(C(C)(C)C)c3c2=O)cc1SCC(F)(F)F [Compound 191] | 100% | – | – | – | 100% | –

— US9512128B2 (BAYER CROPSCIENCE AG, priority 2012, dated 2016)
